Data from the supplement of paper PMC4862054.
Where “and” joins values, the source holds several entries; their conditions need not be identical. Identical values can stand only once.

Assays:
Settings in all cases: incubation time: 72 h
MDA-MB-453 [1] = test: normalised viability (% of control), CellTiter-Blue; higher = more viable cells (about 100 = DMSO control)
Experimental: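 DSRT, CellTiter-Blue viability, 72 h incubation. Signal is normalised to DMSO and benzethonium chloride controls. Value is the normalised response at dose 9.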

BT-474 = test: drug sensitivity score (DSS), CellTiter-Blue viability (DSS (AUC-based score)); higher = stronger viability inhibition; extreme values may be limits of the assay
Experimental: (§1)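 DSRT with the CellTiter-Blue (resazurin reduction) viability readout, fluorescence 560/590 nm, 72 h incubation. Plates were normalised to DMSO and benzethonium chloride controls. DSS is computed from the area under the fitted dose-response curve (5 or 9 concentrations).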

MFM-223 [2] = test: as above
Experimental: as §1

SK-BR-3 = test: as above
Experimental: as §1

MDA-MB-468 = test: as above
Experimental: as §1

CAL-85-1 = test: as above
Experimental: as §1

HCC1143 = test: as above
Experimental: as §1

Hs578T = test: as above
Experimental: as §1

CAL-148 [3] = test: as above
Experimental: as §1

BT-549 = test: as above
Experimental: as §1

CAL-120 = test: as above
Experimental: as §1

MDA-MB-453 [4] = test: as above
Experimental: as §1

DU-4475 = test: as above
Experimental: as §1

MDA-MB-436 [5] = test: as above
Experimental: as §1

HCC1599 [6] = test: as above
Experimental: as §1

HCC1937 [7] = test: as above
Experimental: as §1

HDQ-P1 [8] = test: as above
Experimental: as §1

CAL-51 [9] = test: as above
Experimental: as §1

MDA-MB-231 = test: as above
Experimental: as §1

MFM-223 [10] = test: normalised viability (% of control), CellTiter-Blue; higher = more viable cells (about 100 = DMSO control)
Experimental: (§2)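 DSRT, CellTiter-Blue viability, 72 h incubation. Signal is normalised to DMSO and benzethonium chloride controls. Value is the normalised response at dose 3.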

CAL-148 [11] = test: as above
Experimental: as §2

MDA-MB-453 [12] = test: as above; remark: listed apart in the source
Experimental: as §2

MDA-MB-436 [13] = test: as above
Experimental: as §2

HCC1599 [14] = test: as above
Experimental: as §2

HCC1937 [15] = test: as above
Experimental: as §2

HDQ-P1 [16] = test: as above
Experimental: as §2

CAL-51 [17] = test: as above
Experimental: as §2

Compound	normalised viability (MDA-MB-453 [1]; 10000 nM) [%]	drug sensitivity score (BT-474)	drug sensitivity score (MFM-223 [2])	drug sensitivity score (SK-BR-3)	drug sensitivity score (MDA-MB-468)	drug sensitivity score (CAL-85-1)	drug sensitivity score (HCC1143)	drug sensitivity score (Hs578T)	drug sensitivity score (CAL-148 [3])	drug sensitivity score (BT-549)	drug sensitivity score (CAL-120)	drug sensitivity score (MDA-MB-453 [4])	drug sensitivity score (DU-4475)	drug sensitivity score (MDA-MB-436 [5])	drug sensitivity score (HCC1599 [6])	drug sensitivity score (HCC1937 [7])	drug sensitivity score (HDQ-P1 [8])	drug sensitivity score (CAL-51 [9])	drug sensitivity score (MDA-MB-231)	normalised viability (MFM-223 [10]; 100 nM) [%]	further results
COc1ccc(-c2ccc3c(N4CCOC[C@@H]4C)nc(N4CCOC[C@@H]4C)nc3n2)cc1CO [AZD8055]	12.2	20	27.6	28.6	16.8	23.6	18.1	23.6	28	22.4	25	29	20.9	15.6	14.5	21.7	23.9	28.8	21.4	26.6	normalised viability (CAL-148 [11]; 10 nM): 80.9%; normalised viability (MDA-MB-453 [12]; 10 nM): 80.3%; normalised viability (MDA-MB-436 [13]; 100 nM): 70.7%; normalised viability (HCC1599 [14]; 100 nM): 65.9%; normalised viability (HCC1937 [15]; 100 nM): 42.6%; normalised viability (HDQ-P1 [16]; 10 nM): 76.8%; normalised viability (CAL-51 [17]; 10 nM): 67.4%
C[C@]12CC[C@H](O)CC1=CC[C@@H]1[C@@H]2CC[C@]2(C)C(c3cccnc3)=CC[C@@H]12 [Abiraterone]		0	0	0	0	0	0	0	0	0	0	0	0	0	0	0	0	0	0		normalised viability (MDA-MB-453 [1]; 5000 nM): 89.2%; normalised viability (MFM-223 [10]; 50 nM): 98%; normalised viability (CAL-148 [11]; 5 nM): 86.7%; normalised viability (MDA-MB-453 [12]; 5 nM): 91.6%; normalised viability (MDA-MB-436 [13]; 50 nM): 126%; normalised viability (HCC1599 [14]; 50 nM): 102%; normalised viability (HCC1937 [15]; 50 nM): 98.9%; normalised viability (HDQ-P1 [16]; 5 nM): 109%; normalised viability (CAL-51 [17]; 5 nM): 106%
CN(C)CCN1C(=O)c2cccc3cc(N)cc(c23)C1=O [Amonafide]	20.4	0.749	1.69	2.78	1.26	3.78	0.876	1.1	7.32	0.97	5.69	4.67	5.45	3.57	1.04	7.96	2.28	5.33	7.74	87.5	normalised viability (CAL-148 [11]; 10 nM): 85.2%; normalised viability (MDA-MB-453 [12]; 10 nM): 94.1%; normalised viability (MDA-MB-436 [13]; 100 nM): 104%; normalised viability (HCC1599 [14]; 100 nM): 102%; normalised viability (HCC1937 [15]; 100 nM): 109%; normalised viability (HDQ-P1 [16]; 10 nM): 105%; normalised viability (CAL-51 [17]; 10 nM): 111%
CC(C)(C#N)c1cc(Cn2cncn2)cc(C(C)(C)C#N)c1 [Anastrozole]	79.8	0	0	0	0	0	0	0	0	0	0	0	0	0	0	0	0	0	0	94.2	normalised viability (CAL-148 [11]; 10 nM): 86.8%; normalised viability (MDA-MB-453 [12]; 10 nM): 97.7%; normalised viability (MDA-MB-436 [13]; 100 nM): 96%; normalised viability (HCC1599 [14]; 100 nM): 102%; normalised viability (HCC1937 [15]; 100 nM): 93.1%; normalised viability (HDQ-P1 [16]; 10 nM): 99.2%; normalised viability (CAL-51 [17]; 10 nM): 109%
O=C(O)CCCc1ccc(N(CCCl)CCCl)cc1 [Chlorambucil]	65	0	0	0	4.32	0	0	0	0	0	0	0	0	0	0	6.58	0	0	0	95.5	normalised viability (CAL-148 [11]; 10 nM): 100%; normalised viability (MDA-MB-453 [12]; 10 nM): 106%; normalised viability (MDA-MB-436 [13]; 100 nM): 95.8%; normalised viability (HCC1599 [14]; 100 nM): 132%; normalised viability (HCC1937 [15]; 100 nM): 87.9%; normalised viability (HDQ-P1 [16]; 10 nM): 112%; normalised viability (CAL-51 [17]; 10 nM): 107%
CO[C@H]1C[C@@H]2CC[C@@H](C)[C@@](O)(O2)C(=O)C(=O)N2CCCC[C@H]2C(=O)O[C@H]([C@H](C)C[C@@H]2CC[C@@H](OCCO)[C@H](OC)C2)CC(=O)[C@H](C)/C=C(\C)[C@@H](O)[C@@H](OC)C(=O)[C@H](C)C[C@H](C)/C=C/C=C/C=C/1C [Everolimus]		13.2 and 16	20 and 19.4	16.9 and 20.1	6.16 and 13.5	15 and 16.7			23 and 25.5	9.4 and 21.3	19.7 and 24.1	29.7 and 31.6	12.8 and 16.3	0				22.7 and 22.2			normalised viability (MDA-MB-453 [1]; 1000 nM): 25.4% and 15.4%; normalised viability (MFM-223 [10]; 10 nM): 55.1% and 49%; normalised viability (CAL-148 [11]; 1 nM): 65.8% and 59.4%; normalised viability (MDA-MB-453 [12]; 1 nM): 44.9% and 39.9%; normalised viability (MDA-MB-436 [13]; 10 nM): 86% and 80.2%; normalised viability (HCC1599 [14]; 10 nM): 81.1% and 87.6%; normalised viability (HCC1937 [15]; 10 nM): 60.5% and 63.5%; normalised viability (HDQ-P1 [16]; 1 nM): 80.8% and 75%; normalised viability (CAL-51 [17]; 1 nM): 70.1% and 73.5%
